Laboratory results reported in PubChem BioAssay AID248 (DTP/NCI, 2004).
Values joined by “and” are separate entries in the source; they are usually repeats but may differ in a detail not shown here. Equal values may be shown once. Inconclusive results and toxic doses are left out. No stated cut-off is given here; in the data, active means T/C of 150% or more; inactive means T/C below 125%. Bridge positions count the residues as written; N and C are the ends. Peptide text beside a SMILES is read from it. I, II: the chains in the order shown.

System: L1210 leukemia ip in BDF1 mice, survival T/C
Test: NCI In Vivo Anticancer Drug Screen. Data for tumor model L1210 Leukemia (intraperitoneal) in B6D2F1 (BDF1) mice
Conditions: endpoint: mean survival time, higher = longer survival
Method in brief: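 Tumor was transplanted into mice, which were then dosed with test compound or vehicle alone. Survival was recorded for each group, and the treated figure was expressed relative to the control figure.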

[1] = dose: 100.0 mg/kg/injection, schedule: Q01DX001 (ip), vehicle: carboxymethylcellulose (CMC)
[2] = dose: 100.0 mg/kg/injection, schedule: Q04DX003 (ip), vehicle: saline
[3] = dose: 200.0 mg/kg/injection, schedule: Q01DX001 (ip), vehicle: carboxymethylcellulose (CMC)
[4] = dose: 200.0 mg/kg/injection, schedule: Q04DX003 (ip), vehicle: saline
[5] = dose: 400.0 mg/kg/injection, schedule: Q01DX001 (ip), vehicle: carboxymethylcellulose (CMC)
[6] = dose: 100.0 mg/kg/injection, schedule: Q04DX003 (ip), vehicle: Klucel (hydroxypropylcellulose) (HPC)
[7] = dose: 200.0 mg/kg/injection, schedule: Q04DX003 (ip), vehicle: Klucel (hydroxypropylcellulose) (HPC)
[8] = dose: 100.0 mg/kg/injection, schedule: Q01DX001 (ip), vehicle: saline
[9] = dose: 200.0 mg/kg/injection, schedule: Q01DX001 (ip), vehicle: saline
[10] = dose: 400.0 mg/kg/injection, schedule: Q01DX001 (ip), vehicle: saline
[11] = dose: 100.0 mg/kg/injection, schedule: Q01DX009 (ip), vehicle: Klucel (hydroxypropylcellulose) (HPC)
[12] = dose: 200.0 mg/kg/injection, schedule: Q01DX009 (ip), vehicle: Klucel (hydroxypropylcellulose) (HPC)
[13] = dose: 400.0 mg/kg/injection, schedule: Q01DX009 (ip), vehicle: Klucel (hydroxypropylcellulose) (HPC)
[14] = dose: 400.0 mg/kg/injection, schedule: Q04DX003 (ip), vehicle: Klucel (hydroxypropylcellulose) (HPC)
[15] = dose: 100.0 mg/kg/injection, schedule: Q04DX002 (ip), vehicle: saline with Tween-80
[16] = dose: 200.0 mg/kg/injection, schedule: Q04DX002 (ip), vehicle: saline with Tween-80
[17] = dose: 400.0 mg/kg/injection, schedule: Q04DX002 (ip), vehicle: saline with Tween-80

Measured: T/C

CCCCCn1cnc2c(=S)nc[nH]c21
inactive: dose: 50.0 mg/kg/injection, schedule: Q01DX001 (ip), vehicle: carboxymethylcellulose (CMC) 92 % of control | [1] 92 % of control | dose: 100.0 mg/kg/injection, schedule: Q01DX009 (ip), vehicle: acetone 93 % of control | [2] 92 % of control | [3] 97 % of control | dose: 200.0 mg/kg/injection, schedule: Q01DX009 (ip), vehicle: acetone 95 % of control | [4] 100 % of control | [5] 90 % of control | dose: 400.0 mg/kg/injection, schedule: Q01DX009 (ip), vehicle: acetone 93 % of control | dose: 400.0 mg/kg/injection, schedule: Q04DX003 (ip), vehicle: saline 103 % of control

COC(=O)C12C3C=CC(O3)C1(C(=O)OC)C1C=CC2O1 (configuration not stated)
inactive: dose: 87.5 mg/kg/injection, schedule: Q01DX009 (ip), vehicle: Klucel (hydroxypropylcellulose) (HPC) 100 % of control | dose: 175.0 mg/kg/injection, schedule: Q01DX009 (ip), vehicle: Klucel (hydroxypropylcellulose) (HPC) 97 % of control | dose: 350.0 mg/kg/injection, schedule: Q01DX009 (ip), vehicle: Klucel (hydroxypropylcellulose) (HPC) 101 % of control

C/C(=N\Nc1cccc(N)c1)c1ccccc1
inactive: dose: 25.6 mg/kg/injection, schedule: Q04DX002 (ip), vehicle: saline with Tween-80 89 % of control | dose: 64.0 mg/kg/injection, schedule: Q04DX002 (ip), vehicle: saline with Tween-80 89 % of control

O=NN(CCCl)C(=O)Nc1ccc2c(c1)-c1ccccc1C2
inactive: dose: 118.0 mg/kg/injection, schedule: Q01DX001 (ip), vehicle: carboxymethylcellulose (CMC) 121 % of control | dose: 177.0 mg/kg/injection, schedule: Q01DX009 (ip), vehicle: carboxymethylcellulose (CMC) 122 % of control | dose: 266.0 mg/kg/injection, schedule: Q01DX009 (ip), vehicle: carboxymethylcellulose (CMC) 88 % of control | dose: 400.0 mg/kg/injection, schedule: Q01DX009 (ip), vehicle: carboxymethylcellulose (CMC) 92 % of control and 113 % of control
active: dose: 118.0 mg/kg/injection, schedule: Q01DX009 (ip), vehicle: carboxymethylcellulose (CMC) 188 % of control and 196 % of control | [5] 159 % of control | dose: 600.0 mg/kg/injection, schedule: Q01DX001 (ip), vehicle: carboxymethylcellulose (CMC) 150 % of control

Nc1ncnc(N)c1NC(=O)CCCc1ccccc1
inactive: [6] 86 % of control | [7] 92 % of control

O=S(=O)(Cc1ccccc1)C(CCCc1ccccc1)S(=O)(=O)Cc1ccccc1
inactive: [1] 97 % of control | [3] 92 % of control | [5] 91 % of control

CS(=O)(=O)OCCC(=O)NCCCCNC(=O)CCOS(C)(=O)=O
inactive: [8] 104 % of control | [2] 115 % of control | [9] 117 % of control | dose: 264.0 mg/kg/injection, schedule: Q01DX001 (ip), vehicle: saline 103 % of control and 121 % of control | dose: 264.0 mg/kg/injection, schedule: Q01DX009 (ip), vehicle: saline 113 % of control | [10] 97 % of control | dose: 400.0 mg/kg/injection, schedule: Q01DX009 (ip), vehicle: saline with Tween-80 122 % of control | dose: 400.0 mg/kg/injection, schedule: Q01DX009 (ip), vehicle: saline 112 % of control

CCCCCNC(=S)Nc1ccccc1
inactive: dose: 38.0 mg/kg/injection, schedule: Q04DX003 (ip), vehicle: other 98 % of control | dose: 75.0 mg/kg/injection, schedule: Q01DX001 (ip), vehicle: other 98 % of control | dose: 75.0 mg/kg/injection, schedule: Q04DX003 (ip), vehicle: other 102 % of control | dose: 150.0 mg/kg/injection, schedule: Q01DX001 (ip), vehicle: other 112 % of control | dose: 150.0 mg/kg/injection, schedule: Q04DX003 (ip), vehicle: other 96 % of control | dose: 300.0 mg/kg/injection, schedule: Q01DX001 (ip), vehicle: other 110 % of control

CC1(C)N=C(N)N=C(N)N1c1cccc(CCCCc2cccc(N)c2)c1
inactive: dose: 5.0 mg/kg/injection, schedule: Q01DX001 (ip), vehicle: saline 98 % of control | dose: 10.0 mg/kg/injection, schedule: Q01DX001 (ip), vehicle: saline 102 % of control | dose: 20.0 mg/kg/injection, schedule: Q01DX001 (ip), vehicle: saline 113 % of control

CC(=O)Nc1cccnc1
inactive: dose: 50.0 mg/kg/injection, schedule: Q01DX009 (ip), vehicle: saline 101 % of control | dose: 50.0 mg/kg/injection, schedule: Q04DX003 (ip), vehicle: saline 100 % of control | dose: 100.0 mg/kg/injection, schedule: Q01DX009 (ip), vehicle: saline 101 % of control | [2] 94 % of control | dose: 200.0 mg/kg/injection, schedule: Q01DX009 (ip), vehicle: saline 98 % of control | [4] 97 % of control

O=C1c2cccc([N+](=O)[O-])c2C(=O)N1CCl
inactive: dose: 100.0 mg/kg/injection, schedule: Q01DX001 (ip), vehicle: steriod suspending solution 97 % of control | dose: 200.0 mg/kg/injection, schedule: Q01DX001 (ip), vehicle: steriod suspending solution 105 % of control

COc1ccc(-c2c(CO)cc(OC)c(OC)c2OC)c(CO)c1
inactive: dose: 75.0 mg/kg/injection, schedule: Q01DX001 (ip), vehicle: saline 99 % of control | dose: 150.0 mg/kg/injection, schedule: Q01DX001 (ip), vehicle: saline 99 % of control | dose: 300.0 mg/kg/injection, schedule: Q01DX001 (ip), vehicle: saline 92 % of control

O=C(Nc1ccc(O)cc1)Nc1cccc(Cl)c1Cl
inactive: [11] 97 % of control | [12] 92 % of control | [13] 103 % of control

CCCCCCCCCCCCNc1nnc(Cl)c2ccccc12
inactive: [6] 95 % of control | [7] 97 % of control | [14] 92 % of control

Nc1nc(N)c2[nH]c(CCc3ccccc3)nc2n1
inactive: dose: 25.0 mg/kg/injection, schedule: Q04DX002 (ip), vehicle: Klucel (hydroxypropylcellulose) (HPC) 95 % of control | dose: 50.0 mg/kg/injection, schedule: Q04DX002 (ip), vehicle: Klucel (hydroxypropylcellulose) (HPC) 91 % of control | dose: 100.0 mg/kg/injection, schedule: Q04DX002 (ip), vehicle: Klucel (hydroxypropylcellulose) (HPC) 98 % of control

CCOC(=O)C(Cc1ccc(O)cc1)NC(=O)C(N)CSSCC(N)C(=O)NC(Cc1ccc(O)cc1)C(=O)OCC (stereo not drawn) (I: H-Cys-Tyr-OEt / II: H-Cys-Tyr-OEt; disulfide I:1-II:1; configuration not given here)
inactive: [8] 97 % of control | [9] 105 % of control | [10] 94 % of control

CC(=O)OC1(C)CC(C)C(O)C(C(O)CC2CC(=O)NC(=O)C2)C1 (configuration not stated)
inactive: dose: 5.0 mg/kg/injection, schedule: Q01DX001 (ip), vehicle: water 98 % of control | dose: 10.0 mg/kg/injection, schedule: Q01DX001 (ip), vehicle: water 107 % of control | dose: 20.0 mg/kg/injection, schedule: Q01DX001 (ip), vehicle: water 112 % of control

Cc1nc(C)c([N+](=O)[O-])s1
inactive: [11] 93 % of control | [6] 100 % of control | [12] 94 % of control | [7] 96 % of control | [13] 101 % of control | [14] 100 % of control

Nc1nc(Cl)c(CCCCc2ccccc2)c(C(=O)O)n1
inactive: dose: 100.0 mg/kg/injection, schedule: Q01DX001 (ip), vehicle: Klucel (hydroxypropylcellulose) (HPC) 93 % of control | dose: 200.0 mg/kg/injection, schedule: Q01DX001 (ip), vehicle: Klucel (hydroxypropylcellulose) (HPC) 91 % of control | dose: 400.0 mg/kg/injection, schedule: Q01DX001 (ip), vehicle: Klucel (hydroxypropylcellulose) (HPC) 101 % of control

Oc1ccccc1/C=N\Sc1ccc(Br)cc1
inactive: [15] 112 % of control | [16] 91 % of control | [17] 94 % of control

O=C(C1=CN(CC(O)c2ccccc2)CCC1)c1cc2ccccc2n1S(=O)(=O)c1ccccc1 (configuration not stated)
inactive: [15] 97 % of control | [16] 94 % of control | [17] 94 % of control

C/C(Cc1cc(C)[nH]c(=S)n1)=N\NC(N)=O
inactive: dose: 50.0 mg/kg/injection, schedule: Q01DX009 (ip), vehicle: saline with Tween-80 92 % of control | dose: 100.0 mg/kg/injection, schedule: Q01DX009 (ip), vehicle: saline with Tween-80 92 % of control
